Assays:
[1] = biological target: T1, AChE from electric eel (EeAChE) (Electrophorus electricus, UniProt O42275); test: Inhibition of AChE, modified Ellman's spectrophotometric method; type: biochemical, electric eel (Electrophorus electricus L.); conditions: for IC50: EeAChE, Ellman's method, mean ± SD, n = three independent experiments
T1 construct: purchased Merck (Prague, Czech Republic)
Description: (§1) The heterocycles 3 were screened for their ability to interfere with the function of AChE from electric eel (EeAChE) and BChE from equine serum (EqBChE) using Ellman’s method (Table 1). Their activities are expressed as the concentration producing 50% inhibition of enzymatic activity (IC50). In addition, we calculated selectivity indexes (SI) that quantify the selectivity for AChE as more inhibited cholinesterase. SI is the ratio of IC50 for BChE/IC50 for AChE.
(§2) Enzyme inhibition activity of 3 quantified as IC50 values was determined spectrophotometrically using modified Ellman’s method. […] The enzyme activity is measured indirectly by determination of 5-mercapto-2-nitrobenzoic acid ion formed after reaction of the thiol reagent 5,5′-disulfanediyl-bis(2-nitrobenzoic acid) (DTNB) and thiocholine, a product of acetylthiocholine (ATCh) and butyrylthiocholine (BTCh) as substrates for hydrolysis by AChE and BChE, respectively.
(§3) The enzyme activity in final reaction mixture (2000 µL) was 0.2 U/mL, concentration of ATCh (or BTCh) 40 µM and concentration of DTNB 100 µM for all reactions. The compounds 3 were dissolved in DMSO and then diluted in demineralized water (conductivity 3 μS, equipment supplier BKG Water Treatment, Hradec Králové, Czech Republic) to the concentration of 1000 µM. […] The final concentration of DMSO was 0.2%. All experiments were carried in triplicates. The average values of reaction rate (v0-uninhibited reaction, vi-inhibited reaction) were used for construction of the dependence v0/vi vs. concentration of inhibitor. From obtained equation of regression curve, IC50 values were calculated.
(§4) Acetylcholinesterase was used from electric eel (Electrophorus electricus L.; EeAChE) and butyrylcholinesterase originated from equine serum (EqBChE).

[2] = biological target: T2, BChE from equine serum (EqBChE) (Equus caballus, UniProt P81908); test: Inhibition of BChE, modified Ellman's spectrophotometric method; type: biochemical; conditions: for IC50: EqBChE, Ellman's method, mean ± SD, n = three independent experiments
T2 construct: butyrylcholinesterase originated from equine serum (EqBChE); purchased Merck (Prague, Czech Republic); host or cells: equine serum
Description: as §1, §2, §3, §4

AChE [3] = biological target: T3, AChE (Electrophorus electricus, UniProt O42275); test: Reversibility of AChE inhibition (residual enzyme activity over time); type: biochemical, electric eel (Electrophorus electricus L.)
T3 construct: purchased Merck (Prague, Czech Republic)
Description: Based on the promising in vitro inhibition of AChE by thiadiazole 3t, we investigated the derivative to distinguish between reversible, pseudo-irreversible and irreversible inhibition on the basis of changes in enzyme activity over time in the presence of the inhibitor. In reversible inhibition, the activity of enzyme goes down immediately, but the inhibitory molecule is bound to the target for a short period of time, after which the inhibitor-enzyme complex dissociates, and enzyme activity is restored. In pseudo-irreversible inhibition, the inhibitor binds covalently to the enzyme, but the bond is broken down more slowly, delaying the return of enzyme activity to its initial state. In the case of irreversible inhibitors, the reaction between the enzyme and the inhibitor is not rapid because there is a time-dependent drop of activity. Irreversible inhibitors decrease enzyme activity gradually. […]
Three different inhibitor concentrations (1, 10, and 100 µM) were chosen. […] At given times (5, 10, 15, 20, 30, 40, 50, 60, 260, and 1450 min), DTNB and ATCh were added to the sample taken from the reaction mixture, mixed rapidly, and the absorbance was measured to quantify the enzyme activity. Based on knowledge of the enzyme activity in the absence of the inhibitor (i.e., 100% activity), the percentages of residual enzyme activity in presence of inhibitor were calculated. […]

AChE [4] = biological target: T3, AChE; test: Type of AChE inhibition (Lineweaver–Burk plot); type: biochemical, electric eel (Electrophorus electricus L.); conditions: ATCh 20–80 µM, inhibitor 10, 25, 35 and 50 µM
Description: We also valuated the type of inhibition of 3t using AChE. In general, the reversible inhibitors can be classified as competitive, non-competitive, uncompetitive, or mixed type. The type of inhibition could be distinguished using the Lineweaver–Burk plot and the corresponding comparison of two key kinetic parameters: maximum velocity (Vm) and Michaelis constant (KM) of the inhibited and uninhibited reactions. Based on the changes of these parameters and intercept of the lines in Lineweaver–Burk plot, the type of inhibition is uncovered.
The inhibition is associated with a change in both KM and Vm and also their ratio is different compared to the uninhibited reaction. In the Lineweaver–Burk plot, the intersection of the lines is in quadrant III but not on axis.
The procedure was analogous to the determination of IC50. The enzyme activity in the final reaction mixture (2000 µL) was 0.2 U/mL, concentration of ATCh 20–80 µM and concentration of DTNB was 100 µM. For each of the substrate concentrations, four different concentrations of the inhibitor were used (10, 25, 35 and 50 µM). The dependence of absorbance vs. time was observed and the reaction rate was calculated. […] From obtained equations of regression curves in Lineweaver–Burk plot, the values of Michaelis constant (KM) and maximum velocity (Vm) were calculated. […]

T2 sequence (P81908 whole entry): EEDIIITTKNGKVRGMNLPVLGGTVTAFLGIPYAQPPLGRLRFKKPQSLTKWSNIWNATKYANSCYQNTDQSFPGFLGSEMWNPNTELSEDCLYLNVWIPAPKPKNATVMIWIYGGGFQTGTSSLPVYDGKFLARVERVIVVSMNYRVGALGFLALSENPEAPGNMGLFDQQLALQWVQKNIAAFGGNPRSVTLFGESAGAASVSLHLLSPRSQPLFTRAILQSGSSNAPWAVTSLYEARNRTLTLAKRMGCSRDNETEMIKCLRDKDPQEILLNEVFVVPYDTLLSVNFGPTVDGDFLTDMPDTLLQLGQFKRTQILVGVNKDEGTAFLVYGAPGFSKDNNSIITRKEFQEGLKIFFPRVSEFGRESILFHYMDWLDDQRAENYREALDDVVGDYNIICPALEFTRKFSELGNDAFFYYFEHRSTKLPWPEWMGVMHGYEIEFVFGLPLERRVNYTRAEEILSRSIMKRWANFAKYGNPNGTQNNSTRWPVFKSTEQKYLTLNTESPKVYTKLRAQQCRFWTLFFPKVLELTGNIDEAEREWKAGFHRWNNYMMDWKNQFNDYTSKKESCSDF
T3 sequence (O42275 24-633): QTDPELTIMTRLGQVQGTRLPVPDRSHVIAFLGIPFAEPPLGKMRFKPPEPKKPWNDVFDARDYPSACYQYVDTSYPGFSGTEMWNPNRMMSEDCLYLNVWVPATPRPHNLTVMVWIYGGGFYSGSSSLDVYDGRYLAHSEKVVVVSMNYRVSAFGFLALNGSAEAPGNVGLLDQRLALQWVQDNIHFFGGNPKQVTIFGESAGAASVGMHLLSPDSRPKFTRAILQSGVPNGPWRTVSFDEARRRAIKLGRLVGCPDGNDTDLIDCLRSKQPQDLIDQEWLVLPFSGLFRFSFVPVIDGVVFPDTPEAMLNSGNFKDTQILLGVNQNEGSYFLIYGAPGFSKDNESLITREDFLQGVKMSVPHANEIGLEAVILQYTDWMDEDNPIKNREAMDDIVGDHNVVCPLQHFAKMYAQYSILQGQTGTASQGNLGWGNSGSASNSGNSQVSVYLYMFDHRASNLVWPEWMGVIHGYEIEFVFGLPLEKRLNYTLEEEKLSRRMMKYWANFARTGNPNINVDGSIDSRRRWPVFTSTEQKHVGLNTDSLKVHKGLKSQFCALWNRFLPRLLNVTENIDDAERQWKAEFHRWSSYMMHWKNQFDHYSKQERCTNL
T1 sequence (O42275 24-633): as above

Row | SMILES | IC50 [1] [µM] | BChE/AChE Ratio (selectivity index, IC50 for BChE/IC50 for AChE) [1] | IC50 [2] [µM] | fold lower AChE inhibition, oxadiazole vs. thiadiazole 3t ([1]; 3t vs. 3l) [×] | fold higher in vitro activity (IC50) against AChE than rivastigmine ([1]; compared with rivastigmine) [×] | fold boost of BChE inhibitory potency, switch of oxygen to sulfur ([2]; 3l vs. 3t) [×] | reversibility of AChE inhibition (AChE [3]; 1, 10 and 100 µM, residual activity followed 5–1450 min) | time at which almost maximum inhibition is reached (AChE [3]; two lower concentrations (1 and 10 µM)) [min] | type of inhibition (AChE [4])
1 | CCCCCCCCCCCCc1nnc(-c2ccncc2)o1 [3u, 2-Dodecyl-5-(pyridin-4-yl)-1,3,4-oxadiazole] | 99.2 ± 3.26 | 2.9 | 289 ± 1.55 | – | – | – | – | – | –
2 | CCCCCCCCCCCCNc1nnc(-c2cnccn2)o1 [3p, N-Dodecyl-5-(pyrazin-2-yl)-1,3,4-oxadiazol-2-amine] | 92.1 ± 6.11 | 4.9 | 452 ± 59.3 | – | – | – | – | – | –
3 | CCCCCCCCCCCCNc1nnc(-c2ccnc(Br)c2)o1 [3q, 5-(2-Bromopyridin-4-yl)-N-dodecyl-1,3,4-oxadiazol-2-amine] | 73.4 ± 2.06 | 3.1 | 224.2 ± 1.29 | – | – | – | – | – | –
4 | CCCCCCCCCCCCNc1nnc(-c2cccnc2)o1 [3m, N-Dodecyl-5-(pyridin-3-yl)-1,3,4-oxadiazol-2-amine] | 64.2 ± 0.93 | 5.8 | 369 ± 3.83 | – | – | – | – | – | –
5 | CCCCCCCCCCCCNc1nnc(-c2ccncc2)o1 [3l, N-Dodecyl-5-(pyridin-4-yl)-1,3,4-oxadiazol-2-amine] | 50.2 ± 0.79 | 4.4 | 223 ± 1.54 | 3.9 | – | – | – | – | –
6 | CCCCCCCCCCCCNc1nnc(-c2ccc(F)cc2)o1 [3g, N-Dodecyl-5-(4-fluorophenyl)-1,3,4-oxadiazol-2-amine] | 36.7 ± 1.59 | 7.3 | 266.7 ± 2.59 | – | – | – | – | – | –
7 | CCCCCCCCCCCCNc1nnc(-c2ccc(Cl)cc2)o1 [3h, 5-(4-Chlorophenyl)-N-dodecyl-1,3,4-oxadiazol-2-amine] | 50.2 ± 1.88 | 8.8 | 444 ± 8.5 | – | – | – | – | – | –
8 | CCCCCCCCCCCCNc1nnc(-c2ccc([N+](=O)[O-])cc2)o1 [3e, N-Dodecyl-5-(4-nitrophenyl)-1,3,4-oxadiazol-2-amine] | 70.46 ± 0.59 | 1.5 | 105.2 ± 0.94 | – | – | – | – | – | –
9 | CCCCCCCCCCCCNc1nnc(-c2ccc(Br)cc2)o1 [3i, 5-(4-Bromophenyl)-N-dodecyl-1,3,4-oxadiazol-2-amine] | 40 ± 0.98 | 9.2 | 369 ± 5.82 | – | – | – | – | – | –
10 | CCCCCCCCCCCCNc1nnc(-c2ccncc2)s1 [3t, N-Dodecyl-5-(pyridin-4-yl)-1,3,4-thiadiazol-2-amine] | 12.78 ± 0.03 | 4.2 | 53.1 ± 3.68 | – | 4.4 | 4.2 | reversible AChE inhibitor | 5 | mixed type of inhibition
11 | CCCCCCCCCCCCNc1nnc(-c2ccc(N(C)C)cc2)o1 [3f, 5-[4-(Dimethylamino)phenyl]-N-dodecyl-1,3,4-oxadiazol-2-amine] | 87.99 ± 0.81 | 3.6 | 316 ± 6.22 | – | – | – | – | – | –
12 | CCCCCCCCCCCCNc1nnc(-c2ccc(C(C)(C)C)cc2)o1 [3d, 5-[4-(tert-Butyl)phenyl]-N-dodecyl-1,3,4-oxadiazol-2-amine] | 65.2 ± 0.72 | 2.3 | 152 ± 6.02 | – | – | – | – | – | –
13 | CCCCCCCCCCCCNc1nnc(-c2ccc(OC)cc2)o1 [3c, N-Dodecyl-5-(4-methoxyphenyl)-1,3,4-oxadiazol-2-amine] | 33.86 ± 0.27 | 6.6 | 225 ± 11 | – | – | – | – | – | –
14 | CCCCCCCCCCCCNc1nnc(-c2ccc(I)cc2)o1 [3j, N-Dodecyl-5-(4-iodophenyl)-1,3,4-oxadiazol-2-amine] | 37.8 ± 1.83 | 12.7 | 482 ± 6.15 | – | – | – | – | – | –
15 | CCCCCCCCCCCCNc1nnc(-c2ccccc2)o1 [3a, N-Dodecyl-5-phenyl-1,3,4-oxadiazol-2-amine] | 40.1 ± 0.54 | 3.7 | 149 ± 1.69 | – | – | – | – | – | –
16 | CCCCCCCCCCCCNc1nnc(-c2cc([N+](=O)[O-])cc([N+](=O)[O-])c2)o1 [3k, 5-(3,5-Dinitrophenyl)-N-dodecyl-1,3,4-oxadiazol-2-amine] | 40.98 ± 0.11 | 9.4 | 384 ± 5.34 | – | – | – | – | – | –
17 | CCCCCCCCCCCCSc1nnc(-c2ccncc2)o1 [3s, 2-(Dodecylthio)-5-(pyridin-4-yl)-1,3,4-oxadiazole] | 91.6 ± 7.14 | >5.5 | > 500 | – | – | – | – | – | –
18 | CCCCCCCCCCCCNc1nnc(-c2ccnnc2)o1 [3r, N-Dodecyl-5-(pyridazin-4-yl)-1,3,4-oxadiazol-2-amine] | 81.5 ± 4.14 | 2.9 | 238 ± 13.8 | – | – | – | – | – | –
19 | CCCCCCCCCCCCNc1nnc(-c2ccccn2)o1 [3n, N-Dodecyl-5-(pyridin-2-yl)-1,3,4-oxadiazol-2-amine] | 60.5 ± 2.42 | 5.2 | 315.4 ± 1.96 | – | – | – | – | – | –
20 | CCCCCCCCCCCCNc1nnc(-c2ccc(C)cc2)o1 [3b, N-Dodecyl-5-(p-tolyl)-1,3,4-oxadiazol-2-amine] | 34.6 ± 0.96 | 2.6 | 90 ± 2.35 | – | – | – | – | – | –
21 | CCCCCCCCCCCCNc1nnc(-c2ccncn2)o1 [3o, N-Dodecyl-5-(pyrimidin-4-yl)-1,3,4-oxadiazol-2-amine] | 45.5 | 6.6 | 298.3 ± 2.19 | – | – | – | – | – | –
